These results are taken from patent publication US5428031A, “Methods of treating cardiac arrhythmia” (priority 1993, dated 1995).

Common to all, as to type: cell-based
Experiment [1] has as its system ICa (Ca2+ current). The experiment can be described thus: voltage clamp measurement of Ca2+ current in isolated guinea pig ventricular myocytes. The conditions noted are these: 0.1 μM. As for the experimental part:
(§1) Guinea pig ventricular myocytes were isolated using a modification of the procedure described by Mitra R and Morad M., "A Uniform Enzymatic Method for Dissociation of Myocytes from Hearts and Stomachs of Nertilorates", Am. J. Physiol. 249:H1056-60 (1985). Excised hearts were perfused through the aorta (retrograde fashion) at a rate of 10 ml/min with oxygenated, warmed (37° C.) solutions described below. The heart was initially perfused for 7 minutes with a Tyrode's solution containing, in mM: 132 NaCl, 4 KCl, 1.2 MgCl2, 10 HEPES (formal name N-2-Hydroxyethylpiperazine-N-2-ethanesulfonic acid), 5 glucose, pH=7.2. The head was then perfused with the same nominally Ca^2+ -free solution containing 150 units/ml Type II collagenase (Worthington) and 0.5 units/ml Type XIV protease (Sigma) for 8 minutes. This perfusate was followed by a Tyrode's solution containing 0.2 mM CaCl2 (without enzymes) for 5 minutes. The digested ventricles were cut into small pieces and gently shaken until cells were visibly dispersed. […]
(§2) The suction microelectrode technique described by Giles, W. R. and Shibata, E. F., "Voltage clamp of bull-frog cardiac pacemaker cells: a quantitative, analysis of potassium currents". […]
(§3) To record K^+ currents, the cells were bathed in a Ca^2+ -free Tyrode's :solution containing […] nisoldipine. […] Data was analyzed as % block from control membrane currents. […]

Experiment [2] concerns IK1 (inward rectifier K+ current). The experiment can be described thus: voltage clamp measurement of IK1 block in isolated guinea pig ventricular myocytes. The conditions noted are these: 1 μM. The method, then: as §1, §2, §3
The subject of experiment [3] is guinea pig ventricular myocytes. The experiment can be described thus: frequency-dependent effects on action potential duration (APD90) in isolated ventricular myocytes. The conditions noted are these: for APD90 percent change at 0.01 µM / APD90 percent change at 0.03 µM / APD90 percent change at 0.1 µM: Cavia porcellus, Ventricular myocyte; for APD90 percent change at 0.01 µM: 10 nM; for APD90 percent change at 0.03 µM: 30 nM; for APD90 percent change at 0.1 µM: 100 nM; for APD90 % Change: Washout. The method, then: Guinea pig ventricular myocytes were isolated using a modification of the procedure described by Mitra R and Morad M., "A Uniform Enzymatic Method for Dissociation of Myocytes from Hearts and Stomachs of Nertilorates", Am. J. Physiol. 249:H1056-60 (1985). Excised hearts were perfused through the aorta (retrograde fashion) at a rate of 10 ml/min with oxygenated, warmed (37° C.) solutions described below. The heart was initially perfused for 7 minutes with a Tyrode's solution containing, in mM: 132 NaCl, 4 KCl, 1.2 MgCl2, 10 HEPES (formal name N-2-Hydroxyethylpiperazine-N-2-ethanesulfonic acid), 5 glucose, pH=7.2. The head was then perfused with the same nominally Ca^2+ -free solution containing 150 units/ml Type II collagenase (Worthington) and 0.5 units/ml Type XIV protease (Sigma) for 8 minutes. This perfusate was followed by a Tyrode's solution containing 0.2 mM CaCl2 (without enzymes) for 5 minutes. The digested ventricles were cut into small pieces and gently shaken until cells were visibly dispersed. The cells were stored at room temperature until use, within 8 hours after isolation.
Cell preparation: Same as described in section I.
Transmembrane action potential measurements were made using a technique similar to that described previously by Salata, J. J. and Wasserstrom, J. A. "Effects of quinicline on action potentials and ionic currents in isolated canine ventricular myocytes", Circ. Res. 62:324-337, 1988. The isolated ventricular myocytes were transferred to a glass bottom experimental perfusion chamber (12×25 mm) filled with a HEPES-Tyrode's solution containing in mM: 132 NaCl, 4 KCl, 1.8 CaCl2, 1.2 MgCl2, 10 HEPES, 5 glucose, pH=7.2 to a height of 2 mm. After the myocytes settled to the bottom of the chamber, they were continuously superfused with preheated HEPES-Tyrode's solution at a rate of 2.0 ml/min. The temperature was monitored and maintained at 36°±0.5° C. The experimental chamber was placed on the stage of an inverted microscope (Nikon Diaphot-TMD) to view the cells. Transmembrane potentials were recorded by means of conventional glass microelectrodes that were filled with 3M KCl and had tip resistances of 40-60 M.OMEGA.. The microelectrode was connected through a Ag--AgCl electrode to the headstage preamplifier (model HS-2, gain=1.0) of an operational amplifier with a high input impedance and variable input capacitance neutralization (Axoclamp -2A, Axon Instruments, Foster City, Calif.). The voltage drop across the microelectrode produced by current injection was compensated electronically with an active bridge circuit immediately-before impalement of a cell. The experimental bath was grounded through a 3M KCl agar bridge and a Ag--AgCl junction. The microelectrodes were positioned carefully at the cell surface using a hydraulic micromanipulator (Narishige Model MO-303, Greenvale, N.Y.). Penetration of the cell membrane was achieved by briefly (1-3 msec)increasing the input capacitance neutralization to cause oscillation of the amplifier. After establishing a stable microelectrode seal, the myocyte was lifted off the bottom of the chamber to allow complete superfusion of the cell. Action potentials were generated by passing current pulses of 1 msec in duration, and with an intensity of 1.2 times threshold at varying stimulus rates through the recording electrode. Cells were allowed to stabilize for 20 minutes before collection of data began. Voltage signals were digitized using an analog to digital converter (TL-1, DMA interface, Axon Instruments, Foster City, Calif.) at a sampling frequency of 2 kHz. Data acquisition and analysis were performed with pClamp software (Axon Instruments, Foster City, Calif.) and an AST 486 computer (Irvine, Calif.). Action potentials were stimulated at rates of either 60, 120, and 180 beats/min and were allowed to stabilized for 1 minute at each rate. […]

As for `Cc1cccc(NC(=O)N[C@@H]2N=C(c3ccccc3)c3ccccc3N(C)C2=O)c1` [Compound 4, (R)-N-(2,3-dihydro-1-methyl-2-oxo-5-phenyl-1H-1,4-benzodiazepin-3-yl)-N'-(3-methylphenyl)urea], the “effect on ICa” value in experiment [1] is recorded as “Little or no effect”. Moreover, in experiment [2], the “effect on IK1” value is listed as “Little or no effect”.
Regarding `CN1C(=O)[C@H](NC(=O)/C=C/c2ccc(Cl)cc2Cl)N=C(c2ccccc2)c2ccccc21` [Example 26, E-(+)-N-[(3R)-2,3-Dihydro-1-methyl-2-oxo-5-phenyl-1H-1,4-benzo-diazepin-3-yl]-3-(2,4-dichlorophenyl)-2-propenamide], in experiment [3] (60 beats/min), the APD90 percent change at 0.01 µM is 9.4%, the APD90 percent change at 0.03 µM was determined as 16%, the APD90 percent change at 0.1 µM was found to be 24.7% and the “APD90 % Change” value was 4.2%. Besides, in experiment [3] (120 beats/min), the APD90 percent change at 0.01 µM worked out at 10.1%, the APD90 percent change at 0.03 µM was found to be 14.8%, the APD90 percent change at 0.1 µM amounted to 24.3% and the “APD90 % Change” value was 5.3%. In addition, in experiment [3] (180 beats/min), the APD90 percent change at 0.01 µM was found to be 12.4%, the APD90 percent change at 0.03 µM stood at 14.4%, the APD90 percent change at 0.1 µM was found to be 22.9% and the “APD90 % Change” value is listed as 5.9%. The “reversibility of APD90 increase” value in experiment [3] (after 20 min of washout) is reported as “nearly completely reversible”. In addition, the “frequency dependence of APD90 increase” value in experiment [3] (at higher concentrations) is reported as “frequency-independent manner”. In addition, in experiment [3] (at lower concentrations (10 nM)), the “frequency dependence of APD90 increase” value was “forward frequency-dependent manner”. Further, the “effect on action potential duration” value in experiment [3] (isolated guinea pig myocytes) is “concentration and rate-dependent increases in the action potential duration”.
